From US5672358A (priority 1995, dated 1997) come the findings set out here.

“Also recorded” adds a separate entry of the source.

The series is described as follows: pH dependent solubility of drug or wax.

With `COc1cc(Cc2cnc(N)nc2N)cc(OC)c1OC` [trimethoprim], the “solubility” value is listed as “more soluble at acidic pH values; also recorded: the solubility of the two drugs is pH dependent”.
